Columns and labels:
Format in all cases: cell-based
[1] = tested on: six human breast cancer cell strains; experiment: Antitumor activity evaluation, statements on the whole panel; conditions: compound alone
Text: In antitumor activity evaluation, six human breast cancer cell strains are selected, including BT474, SK-BR3 which are human breast cancer cell strains sensitive to lapatinib, BT/Lap^R1.0, SK/Lap^R1.0 which are human breast cancer cell strains with secondary resistance to lapatinib, MDA-MB-361, MDA-MB-453 which are human breast cancer cell strains with natural resistance tolapatinib.
Antitumor bioactivity evaluation of the compounds of Examples according to the method described below
(§1) Cells plating: a 100 mm culture dish with overgrown adherent cells was digested with 1 ml 0.25% trypsin (GIBCO) at 37° C. for 5 min, and the reaction was terminated with 2 ml culture medium (containing 10% FBS, GIBCO). The cells were scattered and collected, after counting, diluted to 1×10^5 cells/ml, and seeded into a 96-well plate at 50 μl/well, 5000 cells/well, excluding the peripheral circle of wells in which no cell was added, but PBS was added, 60 wells in total, and then incubated at 37° C. for 24 hours for adhering.
Addition of the compound and lapatinib: the test sample was diluted to a final concentration of 5 μM, and the culture medium with the corresponding compound solvent concentration was filled in the control well, the compound solvent concentration was kept consistent in each well, 5 parellel wells were set for each concentration, 25 μl each well, 25 μl culture medium (in combined group, 25 μl lapatinib was added till a final concentration of 1 μM) supplemented, followed by incubation at 37° C. for 72 hours.
(§2) Test after incubation at 37° C. for 72 hours: 50 μL of ATPlite kit substrate solution was added in each well, and vibrated for 3 min, followed by placing aside in darkness for 10 min, and then supernatant 100 μl/well was taken and placed on aluminescence test plate; the luminescence test plate that has been fully incubated was placed in a luminescence test instrument, to read luminescence value.
1. Cell survival rate (%)=Experimental group RLU/control group RLU×100%. The experimental data were subjected to data analysis and processing by utilizing GraphPad software.

BGC823 = experiment: Extended test against tumor cell lines (ATPlite); conditions: BGC823 (gastric cancer), 72 hours
Method: (§3) The compounds of Examples 36/37/40/47/49 were used to carry out extended test against tumor cell lines, wherein 12 kinds of cells were selected, including liver cancer cells, gastric cancer cells, pancreatic cancer cells, colorectal cancer cells, lung cancer cells and normal cells, which were shown in Table 12:
as §1, with “A” for “Cells plating: a”, “54” for “60”
(§4) The test sample was diluted to final concentration of 4, 1, 0.25, 0.063, 0.016 μM, culture medium was filled in control well, 3 parellel wells were set for each concentration, 50 μl each well, followed by incubation at 37° C. for 72 hours.
as §2, with “3) Test” for “Test”, “kitsubstrate” for “kit substrate”, “a luminescence” for “aluminescence”
(§5) Cell survival rate (%)=Experimental group RLU/control group RLU×100%. The experimental data were subjected to data analysis and processing by utilizing GraphPad software.

COLO205 = experiment: Extended test against tumor cell lines (ATPlite); conditions: COLO205 (colorectal cancer), 72 hours
Method: as §3
as §1, with “A” for “Cells plating: a”, “54” for “60”
as §4
as §2, with “3) Test” for “Test”, “kitsubstrate” for “kit substrate”, “a luminescence” for “aluminescence”
as §5

H460 = experiment: Extended test against tumor cell lines (ATPlite); conditions: H460 (lung cancer), 72 hours
Method: as §3
as §1, with “A” for “Cells plating: a”, “54” for “60”
as §4
as §2, with “3) Test” for “Test”, “kitsubstrate” for “kit substrate”, “a luminescence” for “aluminescence”
as §5

HT-29 = experiment: Extended test against tumor cell lines (ATPlite); conditions: HT-29 (colorectal cancer), 72 hours
Method: as §3
as §1, with “A” for “Cells plating: a”, “54” for “60”
as §4
as §2, with “3) Test” for “Test”, “kitsubstrate” for “kit substrate”, “a luminescence” for “aluminescence”
as §5

HepG2 = experiment: Extended test against tumor cell lines (ATPlite); conditions: HepG2 (liver cancer), 72 hours
Method: as §3
as §1, with “A” for “Cells plating: a”, “54” for “60”
as §4
as §2, with “3) Test” for “Test”, “kitsubstrate” for “kit substrate”, “a luminescence” for “aluminescence”
as §5

Huh-7 = experiment: Extended test against tumor cell lines (ATPlite); conditions: Huh-7 (liver cancer), 72 hours
Method: as §3
as §1, with “A” for “Cells plating: a”, “54” for “60”
as §4
as §2, with “3) Test” for “Test”, “kitsubstrate” for “kit substrate”, “a luminescence” for “aluminescence”
as §5

MIA-PaCa-2 = experiment: Extended test against tumor cell lines (ATPlite); conditions: MIA-PaCa-2 (pancreatic cancer), 72 hours
Method: as §3
as §1, with “A” for “Cells plating: a”, “54” for “60”
as §4
as §2, with “3) Test” for “Test”, “kitsubstrate” for “kit substrate”, “a luminescence” for “aluminescence”
as §5

[2] = tested on: MRC5 (lung epithelial fibroblast); experiment: Extended test against tumor cell lines (ATPlite); conditions: MRC5 (normal cells), 72 hours
Method: as §3
as §1, with “A” for “Cells plating: a”, “54” for “60”
as §4
as §2, with “3) Test” for “Test”, “kitsubstrate” for “kit substrate”, “a luminescence” for “aluminescence”
as §5

N87 = experiment: Extended test against tumor cell lines (ATPlite); conditions: N87 (gastric cancer), 72 hours
Method: as §3
as §1, with “A” for “Cells plating: a”, “54” for “60”
as §4
as §2, with “3) Test” for “Test”, “kitsubstrate” for “kit substrate”, “a luminescence” for “aluminescence”
as §5

[3] = tested on: WI-38 (human embryonic lung fibroblast); experiment: Extended test against tumor cell lines (ATPlite); conditions: WI-38 (normal cells), 72 hours
Method: as §3
as §1, with “A” for “Cells plating: a”, “54” for “60”
as §4
as §2, with “3) Test” for “Test”, “kitsubstrate” for “kit substrate”, “a luminescence” for “aluminescence”
as §5

[4] = tested on: tumor cells and normal cells (12 kinds of cells); experiment: Extended test against tumor cell lines, statements on the whole panel
Method: as §3
as §1, with “A” for “Cells plating: a”, “54” for “60”
as §4
as §2, with “3) Test” for “Test”, “kitsubstrate” for “kit substrate”, “a luminescence” for “aluminescence”
as §5

`CSc1nccc(N2CCC(N(C)Cc3ccccc3Cl)CC2)n1` [Example 47, N-methyl-N-(2-chlorobenzyl)-N-[1-(2-methylthiopyrimidin-4-yl)piperidin-4-yl]amine] was tested, and the “growth inhibition to the six human breast cancer cell strains” value [1] was “relatively significant growth inhibition”, the Survival rate (BGC823; 0.016 μM) was 99.8% and the Survival rate (BGC823; 0.063 μM) was 100.6%. It also gave a Survival rate (BGC823; 0.25 μM) of 98.4%, a Survival rate (BGC823; 1 μM) of 84.3% and a Survival rate (BGC823; 4 μM) of 24.5%. For the same compound, the Survival rate (COLO205; 0.016 μM) was 98.2%, the Survival rate (COLO205; 0.063 μM) was 96.7% and the Survival rate (COLO205; 0.25 μM) was 97.9%. The Survival rate (COLO205; 1 μM) was 96.1%, the Survival rate (COLO205; 4 μM) was 23.3% and the Survival rate (H460; 0.016 μM) was 99%. It also gave a Survival rate (H460; 0.063 μM) of 99.8%, a Survival rate (H460; 0.25 μM) of 99.3% and a Survival rate (H460; 1 μM) of 90.6%. For the same compound, the Survival rate (H460; 4 μM) was 33.8%, the Survival rate (HT-29; 0.016 μM) was 102.8% and the Survival rate (HT-29; 0.063 μM) was 102.1%. For the same compound, the Survival rate (HT-29; 0.25 μM) was 101.6%, the Survival rate (HT-29; 1 μM) was 93.1% and the Survival rate (HT-29; 4 μM) was 48.8%. For the same compound, the Survival rate (HepG2; 0.016 μM) was 103.1%, the Survival rate (HepG2; 0.063 μM) was 102.7% and the Survival rate (HepG2; 0.25 μM) was 96%. For the same compound, the Survival rate (HepG2; 1 μM) was 71.4%, the Survival rate (HepG2; 4 μM) was 7.3% and the Survival rate (Huh-7; 0.016 μM) was 91.1%. It also gave a Survival rate (Huh-7; 0.063 μM) of 88.3%, a Survival rate (Huh-7; 0.25 μM) of 81.4% and a Survival rate (Huh-7; 1 μM) of 65.9%. For the same compound, the Survival rate (Huh-7; 4 μM) was 16.7%, the Survival rate (MIA-PaCa-2; 0.016 μM) was 98.5% and the Survival rate (MIA-PaCa-2; 0.063 μM) was 99.3%. For the same compound, the Survival rate (MIA-PaCa-2; 0.25 μM) was 97.4%, the Survival rate (MIA-PaCa-2; 1 μM) was 88.5% and the Survival rate (MIA-PaCa-2; 4 μM) was 24.5%. For the same compound, the Survival rate ([2]; 0.016 μM) was 97.3%, the Survival rate ([2]; 0.063 μM) was 99.5% and the Survival rate ([2]; 0.25 μM) was 100.3%. It also gave a Survival rate ([2]; 1 μM) of 92.6%, a Survival rate ([2]; 4 μM) of 74.8% and a Survival rate (N87; 0.016 μM) of 89.6%. The Survival rate (N87; 0.063 μM) was 91.3%, the Survival rate (N87; 0.25 μM) was 87.8% and the Survival rate (N87; 1 μM) was 68.6%. It also gave a Survival rate (N87; 4 μM) of 34.8%, a Survival rate ([3]; 0.016 μM) of 102.1% and a Survival rate ([3]; 0.063 μM) of 99.7%. It also gave a Survival rate ([3]; 0.25 μM) of 100.4%, a Survival rate ([3]; 1 μM) of 95.1% and a Survival rate ([3]; 4 μM) of 82.1%. For the same compound, the “inhibition of tumor cells versus cytotoxicity to normal cells” value ([4]; 12 kinds of cells, 0.016-4 μM, 72 hours) was “slightly stronger inhibition to liver cancer than that to other tumor cells, and exhibited cytotoxicity to normal cells lower than inhibition to tumor cells” and the “effect compared with the compounds of other Examples” value ([4]; Examples 36/37/40/47/49 compared) was “effect superior to that of the compounds of other Examples”.

Reference: patent US10023565B2, “N,N′ substituted piperidinamine compounds, and preparation method and usage thereof” (Institute of Pharmacology and Toxicology Academy of …, priority 2013, dated 2018)
